Measured values taken from patent US5525503A, “Signal transduction via CD28” (priority 1993, dated 1996).

How the values were obtained:
CD28 signalling = conditions: cited from earlier work
[1] = biological target: association of PI 3-kinase with CD28 (Homo sapiens, UniProt P27986); test: Peptide competition: displacement of PI 3-kinase from CD28 (anti-CD28 immunoprecipitation, anti-p85 immunoblotting); assay type: binding; conditions: peptide 10-50 μM; longer exposure of autoradiograph
PI 3-kinase = test: CD28-associated PI 3-kinase lipid kinase activity of CD28 mutants in transfected Cos-1 cells after anti-CD28 crosslinking (TLC, laser densitometry); assay type: cell-based; conditions: relative to wild type CD28
From the text: FIG. 8 is a photograph of TLC analysis of lipid products following CD28 crosslinking. Cos-1 cells were transfected with wild type CD28 (WT) (lane 2), Tyr-191 to Phe mutant (F191) (lane 3), Met-194 to Cys (C194) (lane 4), and Tyr-209 to Phe (F209) (lane 5). Transfected cells were then subjected to anti-CD28 crosslinking, immunoprecipitation and lipid kinase analysis. Non-transfected cells served as a negative control (lane 1), while immunoprecipitation with anti-p85 antibody served as a positive control (lane 6).
FIG. 9 is a bar graph showing relative autoradiographic intensities of PI-P spots detected in the TLC analysis shown in FIG. 8. Intensity was quantitated by laser densitometric scanning.
The lipid kinase reaction was carried out on beads using soybean phosphatidyl inositol liposomes and γ32P-ATP (20 μCi). Lipids were then extracted using chloroform and methanol (1:1) and separated by thin layer chromatography on a silica gel plate precoated with potassium oxalate using a basic system (chloroform, methanol, water, ammonium hydroxide (60:47:11.3:2), as described in Whitman et al., supra and Auger et al., supra. The corresponding TLC spots were cut, counted for Cherenkov counts and extracted with a solution containing methylamine, methanol and n-butanol (57.7 ml of 25% methylamine in water, 61.6 ml of methanol and 15.6 ml of n-butanol) for 1 h at 53° C. This method also results in the deacylation of lipids. The samples were dried under vacuum and reconstituted in water. […] The deacylated phospholipids were analyzed on a Beckman HPLC system using an ion exchange column and a gradient of NH4 HPO4. ^3 H-PI-4P and adenosine diphosphate were used as internal standards.
Amino acid residues at positions Tyr-191, Met-194 and Tyr-209 were mutated using a site-directed mutagenesis system from Promega (Madison, Wis.). […] Cells were assessed for cell surface expression of CD28 by fluorescence-activated cell sorting (FACS) (EPICS, Coulter Immunology, Hialeah, Fla.). […]

association of PI 3-kinase with CD28, sequence (P27986 whole entry): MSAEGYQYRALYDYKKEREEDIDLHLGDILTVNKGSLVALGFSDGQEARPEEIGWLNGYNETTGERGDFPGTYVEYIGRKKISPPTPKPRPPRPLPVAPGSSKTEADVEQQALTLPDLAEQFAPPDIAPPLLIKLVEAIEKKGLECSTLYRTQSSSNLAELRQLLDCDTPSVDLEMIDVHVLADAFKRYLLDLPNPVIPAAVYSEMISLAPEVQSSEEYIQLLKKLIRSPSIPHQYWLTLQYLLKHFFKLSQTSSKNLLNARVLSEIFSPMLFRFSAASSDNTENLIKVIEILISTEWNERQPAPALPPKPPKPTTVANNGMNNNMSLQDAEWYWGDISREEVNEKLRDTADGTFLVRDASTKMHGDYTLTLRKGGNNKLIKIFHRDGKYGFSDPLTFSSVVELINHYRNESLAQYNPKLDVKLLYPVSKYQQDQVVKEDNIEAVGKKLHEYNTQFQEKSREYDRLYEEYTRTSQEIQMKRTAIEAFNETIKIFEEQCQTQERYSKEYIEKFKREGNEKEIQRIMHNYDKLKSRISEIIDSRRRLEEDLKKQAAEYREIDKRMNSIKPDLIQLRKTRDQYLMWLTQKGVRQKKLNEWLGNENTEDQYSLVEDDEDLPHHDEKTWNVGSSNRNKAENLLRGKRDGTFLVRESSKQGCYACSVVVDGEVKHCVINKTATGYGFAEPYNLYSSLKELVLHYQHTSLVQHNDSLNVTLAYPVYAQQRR

Compound | sensitivity of CD28 signalling to the reagent (CD28 signalling) | effect of CD28 mutation on associated PI 3-kinase (TLC, in words) (PI 3-kinase) | also measured
C=CC[C@@H]1/C=C(\C)C[C@H](C)C[C@H](OC)[C@H]2O[C@@](O)(C(=O)C(=O)N3CCCC[C@H]3C(=O)O[C@H](/C(C)=C/[C@@H]3CC[C@@H](O)[C@H](OC)C3)[C@H](C)[C@@H](O)CC1=O)[C@H](C)C[C@@H]2OC [FK506] | resistant | – | –
CSCC[C@H](NC(=O)[C@@H]1CCCN1C(=O)[C@H](CCSC)NC(=O)[C@H](Cc1ccc(OP(=O)(O)O)cc1)NC(=O)[C@H](CCC(=O)O)NC(=O)[C@H](CCC(=O)O)NC(=O)[C@@H](N)CCC(=O)O)C(=O)N[C@@H](CCC(=O)O)C(=O)N[C@@H](CC(=O)O)C(=O)N[C@@H](CC(C)C)C(=O)N[C@@H](Cc1ccc(O)cc1)C(=O)N[C@@H](CC(C)C)C(=O)O [Glu-Glu-Glu-Tyr-Met-Pro-Met-Glu-Asp-Leu-Tyr-Leu] | – | – | reduction of the level of CD28-associated p85 PI 3-kinase [1]: 60-80%
C194: CD28 with Met-194 mutated to Cys by site-directed mutagenesis | – | partial effect in reducing the level of associated kinase | reduction of CD28-associated PI 3-kinase activity (laser densitometry of PI-P spots) (PI 3-kinase): approximately 40%
F209: CD28 with distal Tyr-209 mutated to Phe, control mutant | – | no effect relative to the wild type control | –
cholera toxin | resistant | – | –
